In BindingDB's records for PubMed 35671625 (Northwest University, 2022):

Molecular target: Beta-2 adrenergic receptor (Homo sapiens, UniProt P07550)
Assay: Displacement of [3H]-CGP12,177 from immobilized Halo tag-fused beta2 adrenoceptor (unknown origin) expressed in Escherichia coli BL21 (DE3)

Sequence of Beta-2 adrenergic receptor (P07550 whole entry, the tested form may be a part): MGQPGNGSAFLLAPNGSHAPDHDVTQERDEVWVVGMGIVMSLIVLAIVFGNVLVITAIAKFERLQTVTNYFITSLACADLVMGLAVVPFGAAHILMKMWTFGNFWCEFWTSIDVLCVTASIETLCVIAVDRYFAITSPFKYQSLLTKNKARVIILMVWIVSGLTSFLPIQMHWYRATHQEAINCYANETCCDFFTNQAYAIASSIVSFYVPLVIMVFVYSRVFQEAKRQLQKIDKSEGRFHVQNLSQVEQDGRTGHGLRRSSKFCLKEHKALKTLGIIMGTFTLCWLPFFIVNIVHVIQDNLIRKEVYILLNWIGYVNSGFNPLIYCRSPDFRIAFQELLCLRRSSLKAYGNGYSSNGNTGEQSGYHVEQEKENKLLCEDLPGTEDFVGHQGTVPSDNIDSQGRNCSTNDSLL

## CNC(C)Cc1ccccc1OC (stereo unspecified) [Methoxyphenamine]
  Kd: 2.1 nM
